Results published in the CheMixHub viscosity set.
Where “and” joins values, the source holds several entries; their conditions need not be identical. Equal entries are not always repeated.

Test: xn = mol fraction of the nth substance listed

C1COCCN1 + O
293.15 K, 101 kPa
Settings	viscosity [mPa·s]
x1 = 0.01898	1.327
x1 = 0.04739	1.963
x1 = 0.08285	3.082
x1 = 0.1083	4.064
x1 = 0.1739	7.227
x1 = 0.2362	10.22
x1 = 0.2817	11.61
x1 = 0.3018	11.87
x1 = 0.3247	12.17
x1 = 0.3476	12.13
x1 = 0.3543	12.09
x1 = 0.4548	10.43
x1 = 0.68	5.954

Cc1ccccn1 + O
viscosity [mPa·s]
Settings	298.15 K	303.15 K	313.15 K	323.15 K
101 kPa, x1 = 0.02168	1.207	–	–	–
101 kPa, x1 = 0.05477	1.711	–	–	–
101 kPa, x1 = 0.1594	2.779	–	–	–
101 kPa, x1 = 0.2977	3.166	–	–	–
101 kPa, x1 = 0.6247	1.736	–	–	–
101.3 kPa, x1 = 0.1	–	1.916	1.467	1.168
101.3 kPa, x1 = 0.2	–	2.506	1.839	1.42
101.3 kPa, x1 = 0.3	–	2.594	1.909	1.465
101.3 kPa, x1 = 0.3999	–	2.364	1.757	1.362
101.3 kPa, x1 = 0.4997	–	1.982	1.515	1.201
101.3 kPa, x1 = 0.5999	–	1.554	1.237	1.008
101.3 kPa, x1 = 0.7	–	1.234	1.016	0.8611
101.3 kPa, x1 = 0.8146	–	0.9988	0.8497	0.7336
101.3 kPa, x1 = 0.8999	–	0.8499	0.7339	0.6501

O=C(CO)[C@@H](O)[C@H](O)[C@H](O)CO + O
Settings	viscosity
293.15 K, 101 kPa, x1 = 0.011	1.18 mPa·s and 1.18 mPa·s
293.15 K, 101 kPa, x1 = 0.0244	1.84 mPa·s
293.15 K, 101 kPa, x1 = 0.0411	2.73 mPa·s
293.15 K, 101 kPa, x1 = 0.0625	5.02 mPa·s
293.15 K, 101 kPa, x1 = 0.0909	10.48 mPa·s and 11 mPa·s
293.15 K, 101 kPa, x1 = 0.13	31.43 mPa·s and 32 mPa·s
298.15 K, 101 kPa, x1 = 0.0005	0.934 mPa·s and 0.934 mPa·s
298.15 K, 101 kPa, x1 = 0.0007	0.9442 mPa·s and 0.9442 mPa·s
298.15 K, 101 kPa, x1 = 0.0009	0.9494 mPa·s and 0.9494 mPa·s
298.15 K, 101 kPa, x1 = 0.0018	0.9838 mPa·s and 0.9838 mPa·s
298.15 K, 101 kPa, x1 = 0.002	0.9772 mPa·s and 0.9772 mPa·s
298.15 K, 101 kPa, x1 = 0.00201	0.944 mPa·s
298.15 K, 101 kPa, x1 = 0.004	1.063 mPa·s
298.15 K, 101 kPa, x1 = 0.00623	1.094 mPa·s
298.15 K, 101 kPa, x1 = 0.011	1.02 mPa·s and 1 mPa·s
298.15 K, 101 kPa, x1 = 0.0244	1.59 mPa·s
298.15 K, 101 kPa, x1 = 0.0411	2.15 mPa·s
298.15 K, 101 kPa, x1 = 0.0625	4.17 mPa·s
298.15 K, 101 kPa, x1 = 0.0909	8 mPa·s and 8 mPa·s
298.15 K, 101 kPa, x1 = 0.13	24.3 mPa·s and 25 mPa·s
298.15 K, 101.3 kPa, x1 = 0.002	0.93 mPa·s
298.15 K, 101.3 kPa, x1 = 0.00359	0.969 mPa·s
298.15 K, 101.3 kPa, x1 = 0.007154	1.055 mPa·s
298.15 K, 101.3 kPa, x1 = 0.01069	1.15 mPa·s
298.15 K, 101.3 kPa, x1 = 0.01421	1.252 mPa·s
298.15 K, 101.3 kPa, x1 = 0.0177	1.362 mPa·s
298.15 K, 101.3 kPa, x1 = 0.02116	1.483 mPa·s
303.15 K, 100 kPa, x1 = 0.0009	0.8331 mPa·s
303.15 K, 100 kPa, x1 = 0.0027	0.8672 mPa·s
303.15 K, 100 kPa, x1 = 0.0045	0.9015 mPa·s
303.15 K, 100 kPa, x1 = 0.0063	0.9349 mPa·s
303.15 K, 101.3 kPa, x1 = 0.002	0.834 mPa·s
308.15 K, 101 kPa, x1 = 0.00201	0.7816 mPa·s
308.15 K, 101 kPa, x1 = 0.004	0.8663 mPa·s
308.15 K, 101 kPa, x1 = 0.00623	0.8883 mPa·s
308.15 K, 101 kPa, x1 = 0.007265	0.863 mPa·s
308.15 K, 101 kPa, x1 = 0.01082	0.928 mPa·s
308.15 K, 101 kPa, x1 = 0.011	0.93 mPa·s and 0.95 mPa·s
308.15 K, 101 kPa, x1 = 0.01435	1.01 mPa·s
308.15 K, 101 kPa, x1 = 0.02129	1.189 mPa·s
308.15 K, 101 kPa, x1 = 0.0244	1.27 mPa·s
308.15 K, 101 kPa, x1 = 0.02481	1.305 mPa·s
308.15 K, 101 kPa, x1 = 0.02821	1.394 mPa·s
308.15 K, 101 kPa, x1 = 0.04021	1.833 mPa·s
308.15 K, 101 kPa, x1 = 0.0411	1.96 mPa·s
308.15 K, 101 kPa, x1 = 0.0435	1.998 mPa·s
308.15 K, 101 kPa, x1 = 0.05099	2.372 mPa·s
308.15 K, 101 kPa, x1 = 0.0625	3.08 mPa·s
308.15 K, 101 kPa, x1 = 0.0909	5.99 mPa·s and 6.05 mPa·s
308.15 K, 101 kPa, x1 = 0.13	14.76 mPa·s and 14 mPa·s
308.15 K, 101.3 kPa, x1 = 0.002	0.753 mPa·s
313.15 K, 101 kPa, x1 = 0.011	0.77 mPa·s
313.15 K, 101 kPa, x1 = 0.0244	1.12 mPa·s
313.15 K, 101 kPa, x1 = 0.0411	1.52 mPa·s
313.15 K, 101 kPa, x1 = 0.0625	2.83 mPa·s
313.15 K, 101 kPa, x1 = 0.0909	4.51 mPa·s and 4.6 mPa·s
313.15 K, 101 kPa, x1 = 0.13	11.83 mPa·s and 11.8 mPa·s
313.15 K, 101.3 kPa, x1 = 0.002	0.685 mPa·s
318.15 K, 101 kPa, x1 = 0.007256	0.696 mPa·s
318.15 K, 101 kPa, x1 = 0.01084	0.758 mPa·s
318.15 K, 101 kPa, x1 = 0.02144	0.946 mPa·s
318.15 K, 101 kPa, x1 = 0.0244	0.99 mPa·s
318.15 K, 101 kPa, x1 = 0.02474	1.021 mPa·s
318.15 K, 101 kPa, x1 = 0.03978	1.469 mPa·s
318.15 K, 101 kPa, x1 = 0.0411	1.24 mPa·s
318.15 K, 101 kPa, x1 = 0.05983	2.055 mPa·s
318.15 K, 101 kPa, x1 = 0.0625	2.3 mPa·s
318.15 K, 101 kPa, x1 = 0.0909	3.65 mPa·s
318.15 K, 101 kPa, x1 = 0.13	9.57 mPa·s and 8 mPa·s
318.15 K, 101.3 kPa, x1 = 0.002	0.625 mPa·s
323.15 K, 101 kPa, x1 = 0.011	0.69 mPa·s
323.15 K, 101 kPa, x1 = 0.0244	0.92 mPa·s
323.15 K, 101 kPa, x1 = 0.0411	1.29 mPa·s
323.15 K, 101 kPa, x1 = 0.0625	2.04 mPa·s
323.15 K, 101 kPa, x1 = 0.0909	3.4 mPa·s
323.15 K, 101 kPa, x1 = 0.13	7.81 mPa·s and 7.5 mPa·s

O=S(=O)([O-])NC1CCCCC1.[Na+] + O
viscosity [mPa·s], 101 kPa
Settings	x1 = 0.0007834	x1 = 0.001319	x1 = 0.001692	x1 = 0.002246	x1 = 0.002766	x1 = 0.003045	x1 = 0.00349	x1 = 0.004121	x1 = 0.00513	x1 = 0.005949
293.15 K	1.028	1.045	1.058	1.078	1.096	1.107	1.124	1.147	1.184	1.217
298.15 K	0.9131	0.9289	0.9398	0.9564	0.973	0.9813	0.9953	1.015	1.047	1.075
303.15 K	0.8176	0.8313	0.8413	0.8553	0.8697	0.8768	0.889	0.9061	0.9337	0.9581
313.15 K	0.6686	0.6797	0.6875	0.6983	0.7094	0.7149	0.7243	0.7375	0.7588	0.7774
323.15 K	0.5593	0.568	0.5741	0.5829	0.5918	0.5961	0.6036	0.6142	0.6312	0.6458
